Source: patent US9062060B2, “Substituted imidazo[2,1-A]isoindoles as PDE10 inhibitors” (H. Lundbeck A/S, priority 2010, dated 2015)

Columns and labels:
[1] = tested on: PCP induced hyperactivity in male mice (NMRI); experiment: Phencyclidine (PCP) induced hyperactivity; format: in vivo; details: at 5 mg/kg, per os 60 min before PCP 2.3 mg/kg s.c.
Experimental: Male mice (NMRI, Charles River) weighing 20-25 g are used. Eight mice are used in each group receiving the test compound (5 mg/kg) plus PCP (2.3 mg/kg) including the parallel control groups receiving the vehicle of the test compound plus PCP or vehicle injections only. The injection volumen is 10 ml/kg. The experiment is made in normal light conditions in an undisturbed room. The test substance is injected per oss 60 min before injection of PCP, which is administered subcutaneous.
Immediately after injection of PCP the mice are placed individually in special designed test cage (20 cm×32 cm). The activity is measured by 5×8 infrared light sources and photocells spaced by 4 cm. The light beams cross the cage 1.8 cm above the bottom of the cage. Recording of a motility count requires interruption of adjacent light beams, thus avoiding counts induced by stationary movements of the mice.
Motility is recorded in 5 min intervals for a period of 1 hour. The drug effect is calculated on the total counts during the 1 hour behavioral test period in the following manner. […] The 100 percent effect of PCP is accordingly calculated to be total motility counts minus baseline. The response in groups receiving test compound is thus determined by the total motility counts minus baseline, expressed in percent of the similar result recorded in the parallel PCP control group. […]

[2] = tested on: catalepsy in rats; details: cited from earlier work
[3] = tested on: hyperactivity in rats induced by PCP; details: cited from earlier work

| SMILES | Inhibition of PCP induced hyperactivity [1] | Effect on the cataleptic effect of the D2 receptor antagonist haloperidol ([2]; combined with haloperidol) | Catalepsy on its own ([2]; papaverine alone) | Effect on hyperactivity induced by PCP [3] |
| --- | --- | --- | --- | --- |
| Cc1ncc(C)n2nc(CCc3cn4c(n3)-c3ccccc3C4)nc12 [2-[-2-(5,8-Dimethyl-[1,2,4]triazolo[1,5-a]pyrazin-2-yl)-ethyl]-5H-imidazo[2,1-a]isoindole] | 100% | – | – | – |
| COc1ccc(Cc2nccc3cc(OC)c(OC)cc23)cc1OC [Papaverine] | – | potentiated the cataleptic effect | did not cause catalepsy on its own | reduced hyperactivity |
